Laboratory results reported in patent US5430005A, “Herbicidal compositions” (Monsanto Company, priority 1991, dated 1995).

Assay: Natural pH of aqueous solution
Format: physicochemical

For O=C(O)CNCP(=O)(O)O [N-phosphonomethylglycine], the “natural pH of aqueous solution” value was roughly 4.7.
